Data published in patent US8575116B1, “Polyacetylenic compounds for protecting against pancreatic islet atrophy” (Academia Sinica, priority 2010, dated 2013).
One block for each compound: values may come before it.

Key:
db/db mice = experiment: Blood insulin after a single oral dose in fed diabetic db/db mice; assay type: in vivo, mouse; settings: for blood insulin levels compared to vehicle, effect in words: single dose, db/db mice; for Blood insulin level: fed db/db mice
Method: After 0.5 h, the levels of postprandial blood sugar and insulin from the mice were monitored for additional 4 h. For continued administration, diabetic db/db males were grouped and tube-fed with vehicle, cytopiloyne (0.5 or 2.5 mgkg^−1 day^−1) or glimepiride (2.5 mg kg^−1 day^−1) for the indicated time, while levels of blood sugar, insulin, and glycosylated HbA1c, and glucose tolerance in these mice were determined. To evaluate the prophylaxis of diabetes, diabetes-free db/db mice at 4 weeks of age were tube-fed with vehicle or cytopiloyne (CP, 0.5 mgkg^−1), once a day, for 4 weeks. Unless indicated otherwise, the mice were fasted for 16 h, then Postprandial blood glucose and insulin in these mice were measured.
Glucose levels in mouse blood samples were measured using an Elite® glucometer (Bayer, Pittsburgh, Pa., USA). Insulin levels in blood samples or islet cell supernatants were determined by ELISA assays (Mercodia, Uppsala, Sweden). The levels of glycosylated HbA1c in mouse blood samples were measured using DCA 2000 analyzer (Bayer, Pittsburgh, Pa., USA).
The same procedure as Table 1 was performed. Blood samples at the indicated time interval (0, 0.5, 1, 2, and 4 h) were collected from the retro-orbital vein of those mice and the insulin levels in each blood sample were determined using ELISA kits. The number of mice used (n) is indicated in parentheses in the first column.

[1] = system: pancreatic islets of db/db mice; experiment: Pancreatic islet histology/immunohistochemistry in db/db mice; assay type: in vivo, mouse; settings: for pancreatic islet structure after long-term treatment: db/db mice 12 to 14 weeks old, cytopiloyne 0.5 and 2.5, glimepiride 2.5 mgkg^−1 day^−1 (FIG. 1F)
Method: FIGS. 1A-F show the anti-diabetic effects of cytopiloyne in db/db mice during long-term treatment. (A) Chemical structure of cytopiloyne (2-β-D-glucopyranosyloxy-1-hydroxytrideca-5,7,9,11-tetrayne). (B) Four groups of 6-to-8-week-old diabetic db/db mice were tube-fed with vehicle, cytopiloyne (CP, 0.5 and 2.5 mgkg^−1 day^−1) or glimepiride (GLM, 2.5 mgkg^−1 day^−1) from 0 to 42 days post-treatment. Blood glucose (BG) levels in these mice were measured. (C) Blood insulin levels from the mice of FIG. 1B. (D) IPGTT was performed in the db/db mice of FIG. 1B on day 0, 28 and 42, and blood glucose levels were monitored for 3.5 h. (E) The percentage of glycosylated HbAlc of whole blood from the mice of FIG. 1B on day 0 and 42. (F) Pancreata of 8- and 16-week-old db/db males, which had received the same treatment as FIG. 1B for 2 (images a-h) and 10 (images i-p) weeks, were stained with hematoxylin and eosin (H&E, images a, c, e, g, i, k, m and o) or hematoxylin and anti-insulin (H&I, images b, d, f, h, j, l, n and p). The arrowheads indicate pancreatic islets. Scale bars, 200 μm. Results from 3 independent experiments are expressed as mean±SEM, and P<0.05 was considered to be statistically significant (*). The number of mice (n) is indicated in parentheses.
Pancreata from db/db males with continuous drug administration were snap frozen in OCT™ compound and stained with hematoxylin and eosin or anti-insulin antibody, followed by diaminobenzidine tetrahydrochloride development. Multiple parallel sections of each pancreas were analyzed by light microscopy.

[2] = Body weight of db/db mice during treatment; assay type: in vivo, mouse
Method: Tables 3 and 4 show the effects of cytopiloyne on body weight and food intake in db/db mice, respectively. Diabetic db/db mice at 6 to 8 weeks of age were allowed free access to food. These mice were treated with vehicle, glimepiride (GLM, 2.5 mg/kg/day), or cytopiloyne (CP, 0.5 and 2.5 mg/kg/day). Mean body weight and food intake of each group were measured from 0 to 6 weeks post-treatment. The number of mice (n) is indicated in parentheses.

STZ-treated C57BL mice = experiment: Insulin sensitizer test: oral dose before insulin injection in STZ-treated C57BL mice; assay type: in vivo, mouse; settings: cytopiloyne 0.5 and 2.5, glimepiride 2.5, metformin 60 mgkg^−1 oral; insulin 2.5 IUkg^−1
Method: FIGS. 3A-C show cytopiloyne-mediated insulin release depends on pancreatic islet cells. (A) Rat pancreatic islet cells were incubated with glucose-free KRB buffer containing vehicle or cytopiloyne at 1.5, 3, 7, 14, 28 and 42 μM (FIG. 3A-i). Similarly, rat pancreatic islet cells were incubated with KRB buffer containing vehicle, glimepiride (GLM, 10 μM) or cytopiloyne at 1.5, 3, 7, 14, 28 and 42 μM in the presence of 3.3 mM glucose (LG, FIG. 3A-ii) or 16.7 mM glucose (HG, FIG. 3A-iii). The insulin levels were determined using an insulin ELISA kit. The data presented as mean±SEM of 3 independent experiments. (B) Fed C57BL mice, which had already received an injection of STZ, were administered with an oral dose of vehicle, cytopiloyne (CP, 0.1, 0.5 and 2.5 mgkg^−1), and an intraperitoneal injection of insulin (Ins, 2.5 IUkg^−1). Blood sugar levels in the STZ-treated mice were determined using a glucometer. (C) C57BL mice, which had already received STZ, were orally administered with a single dose of vehicle, cytopiloyne (CP, 0.5 and 2.5 mgkg^−1), glimepiride (GLM, 2.5 mgkg^−1), or metformin (60 mgkg^−1), followed by an intraperitoneal injection with insulin (Ins). Blood sugar levels in the STZ-treated mice were determined using a glucometer. All the results from 3 independent experiments are expressed as mean±SEM, and P<0.05 was considered to be statistically significant (*). The number of mice (n) is indicated in parentheses.
To deplete pancreatic β-cells in mice, 6-week-old C57BL females (NLAC, Taipei, Taiwan) were intraperitoneally injected with STZ at 200 mgkg^−1. STZ-treated females with postprandial blood sugar over 500 mgdl^−1 were grouped. […] Blood glucose levels were monitored for 4 h. To distinguish sensitizer activity from releaser activity of cytopiloyne, STZ-treated C57BL mice were tube-fed with vehicle, glimepiride (2.5 mgkg^−1), metformin (60 mgkg^−1) or cytopiloyne (0.5 and 2.5 mgkg^−1) 1 h before insulin injection (2.5 IUkg^−1). Blood glucose levels in the mice were monitored from 0 to 4 h after insulin injection.

[3] = system: insulin mRNA in rat primary pancreatic islet cells; experiment: Real-time RT-PCR of insulin mRNA relative to L13 in rat pancreatic islet cells; assay type: cell-based
adiponectin = experiment: Real-time RT-PCR of adiponectin mRNA relative to GAPDH in 3T3-L1 cells; assay type: cell-based, mouse
[4] = single oral dose 2.5 mg/kg, 0 h
[5] = single oral dose 2.5 mg/kg, 0.5 h
[6] = single oral dose 2.5 mg/kg, 1 h
[7] = single oral dose 2.5 mg/kg, 2 h
[8] = single oral dose 2.5 mg/kg, 4 h

SMILES: CC#CC#CC#CC#CCCC(CO)O[C@@H]1O[C@H](CO)[C@@H](O)[C@H](O)[C@H]1O (stereo partly drawn) [cytopiloyne, 2-β-D-glucopyranosyloxy-1-hydroxytrideca-5,7,9,11-tetrayne]
blood insulin levels compared to vehicle, effect in words (db/db mice): significantly elevated the blood insulin levels
Blood insulin level (db/db mice; single oral dose 0.1 mg/kg, 0 h): 17.2 ± 4.7 µg/L
Blood insulin level (db/db mice; single oral dose 0.1 mg/kg, 0.5 h): 21.0 ± 1.3 µg/L
Blood insulin level (db/db mice; single oral dose 0.1 mg/kg, 1 h): 15.5 ± 0.6 µg/L
Blood insulin level (db/db mice; single oral dose 0.1 mg/kg, 2 h): 14.1 ± 0.5 µg/L
Blood insulin level (db/db mice; single oral dose 0.1 mg/kg, 4 h): 9.7 ± 1.3 µg/L
Blood insulin level (db/db mice; single oral dose 0.5 mg/kg, 0 h): 15.7 ± 1.9 µg/L
Blood insulin level (db/db mice; single oral dose 0.5 mg/kg, 0.5 h): 22.6 ± 1.9 µg/L
Blood insulin level (db/db mice; single oral dose 0.5 mg/kg, 1 h): 16.0 ± 2.4 µg/L
Blood insulin level (db/db mice; single oral dose 0.5 mg/kg, 2 h): 12.8 ± 0.7 µg/L
Blood insulin level (db/db mice; single oral dose 0.5 mg/kg, 4 h): 12.2 ± 1.9 µg/L
Blood insulin level (db/db mice; [4]): 12.5 ± 1.2 µg/L
Blood insulin level (db/db mice; [5]): 25.5 ± 1.2 µg/L
Blood insulin level (db/db mice; [6]): 18.9 ± 3.3 µg/L
Blood insulin level (db/db mice; [7]): 17.6 ± 1.7 µg/L
Blood insulin level (db/db mice; [8]): 8.9 ± 2.1 µg/L
pancreatic islet structure after long-term treatment [1]: much greater preservation of islet structure
protection against islet atrophy ([1]; low dose 0.5 mgkg^−1 day^−1, db/db mice (FIG. 1F)): protected against islet atrophy
Mean body weight ([2]; 0.5 mg/kg/day, week 0): 28.2 ± 3.0 g/mouse
Mean body weight ([2]; 0.5 mg/kg/day, week 1): 29.7 ± 3.1 g/mouse
Mean body weight ([2]; 0.5 mg/kg/day, week 2): 32.3 ± 3.3 g/mouse
Mean body weight ([2]; 0.5 mg/kg/day, week 4): 34.1 ± 2.9 g/mouse
Mean body weight ([2]; 0.5 mg/kg/day, week 6): 34.8 ± 2.8 g/mouse
Mean body weight ([2]; 2.5 mg/kg/day, week 0): 27.1 ± 2.4 g/mouse
Mean body weight ([2]; 2.5 mg/kg/day, week 1): 30.0 ± 2.5 g/mouse
Mean body weight ([2]; 2.5 mg/kg/day, week 2): 31.7 ± 1.5 g/mouse
Mean body weight ([2]; 2.5 mg/kg/day, week 4): 33.3 ± 4.1 g/mouse
Mean body weight ([2]; 2.5 mg/kg/day, week 6): 36.4 ± 3.7 g/mouse
body weight compared to control mice, in words ([2]; 6-week-treatment): did not significantly increase body weight
blood sugar lowering when dosed 60 min before insulin injection (STZ-treated C57BL mice): little, if any, lowering effect on blood sugar
up-regulation of insulin transcription relative to that by 16.7 mM glucose ([3]; 28 μM (FIGS. 4A-B)): 40%
insulin mRNA relative to L13 mRNA, fold ([3]; 28 μM, rat islet cells, 24 h): around 2 times
adiponectin expression (adiponectin; 5, 25 and 50 μM, 3T3-L1 cells): slight reduction in adiponectin expression

adiponectin expression level, times control levels (adiponectin; mouse, 8 days, 10 μM): 9 times
SMILES: CCC1=C(C)CN(C(=O)NCCc2ccc(S(=O)(=O)NC(=O)N[C@H]3CC[C@H](C)CC3)cc2)C1=O [glimepiride, reference compound]
blood insulin levels compared to vehicle, effect in words (db/db mice): significantly elevated the blood insulin levels
Blood insulin level (db/db mice; [4]): 13.9 ± 1.2 µg/L
Blood insulin level (db/db mice; [5]): 19.3 ± 4.2 µg/L
Blood insulin level (db/db mice; [6]): 26.3 ± 3.3 µg/L
Blood insulin level (db/db mice; [7]): 15.9 ± 1.7 µg/L
Blood insulin level (db/db mice; [8]): 11.8 ± 2.1 µg/L
pancreatic islet structure after long-term treatment [1]: sporadic islets
pancreatic islet structure after long-term treatment ([1]; listed as Glimepiride): failed to provide such a protection
Mean body weight ([2]; 2.5 mg/kg/day, week 0): 26.9 ± 1.2 g/mouse
Mean body weight ([2]; 2.5 mg/kg/day, week 1): 30.3 ± 2.7 g/mouse
Mean body weight ([2]; 2.5 mg/kg/day, week 2): 30.7 ± 3.0 g/mouse
Mean body weight ([2]; 2.5 mg/kg/day, week 4): 35.2 ± 1.8 g/mouse
Mean body weight ([2]; 2.5 mg/kg/day, week 6): 36.3 ± 2.1 g/mouse
blood sugar lowering when dosed 60 min before insulin injection (STZ-treated C57BL mice): little, if any, lowering effect on blood sugar
insulin mRNA relative to L13 mRNA ([3]; 10 μM, rat islet cells, 24 h): slightly decreased insulin transcription
